One compound from patent US10202342B2, “Targeted delivery of imaging probes for in vivo cellular imaging” (University of Maryland, Baltimore, priority 2008, dated 2019) can be followed below.

This assay deals with cells. The assay is described as follows: Intracellular retention of nitroxides (FIG. 7). It is filed as cell-based. The text has this: The exponential life time (τ) is related to the half-life (t½): t½=0.693τ.
It is evident that nitroxide has a significant increase in retention time and approximately a 4-fold improvement over nitroxide and a 12 fold increase over nitroxide.

Structures are written as SMILES.

With `CC1(C)CC(CN(CC(=O)O)CC(=O)O)C(C)(C)N1[O]` (stereo not drawn) [nitroxide [3], (2,2,5,5-tetramethylpyrrolidin-1-oxyl-3-ylmethyl)amine-N,N-diacetic acid], for the setting “FIG. 7, nitroxides [1]-[3] compared”, the “intracellular retention life time (single-exponential fits), comparison in words” value is “longest life time within the cells”. For the same compound, where the note is “FIG. 7, retention within cells”, the “intracellular retention time, improvement over nitroxide [2]” value is ~4 fold and the “intracellular retention time, increase over nitroxide [1]” value is ~12 fold.
